Laboratory results as given in patent US20080146616A1, “Indoles Useful in the Treatment of Inflammation” (priority 2004, published 2008).

Target: T1, human mPGES-1 (Homo sapiens, UniProt O14684)
T1 construct: made in house; host or cells: E. coli (membrane fraction)
T1 sequence (O14684 1-152): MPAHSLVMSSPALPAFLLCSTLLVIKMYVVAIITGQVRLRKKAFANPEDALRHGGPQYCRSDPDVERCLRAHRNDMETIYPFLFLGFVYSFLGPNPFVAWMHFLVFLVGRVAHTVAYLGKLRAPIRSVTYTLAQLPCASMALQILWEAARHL
Assay: mPGES-1 inhibition assay (conversion of PGH2 to PGE2, HPLC analysis)
Type: biochemical
Details: human mPGES-1 expressed in E. coli, membrane fraction; 25 min preincubation, PGH2 substrate 60 s, room temperature; read-out: concentration at which 50% inhibition of mPGES-1 was observed
Protocol: In the assay human in PGES-1 catalyses the reaction where the substrate PGH2 is converted to PGE2. mPGES-1 is expressed in E. Coli and the membrane fraction is dissolved in 20mM NaPi-buffer pH 8.0 and stored at −80° C. In the assay human mPGES-1 is dissolved in 0.1 M KPi-buffer pH 7.35 with 2.5 mM glutathione. The stop solution consists of H2O/MeCN (7/3), containing FeCl2 (25 mM) and HCl (0.15 M). The assay is performed at room temperature in 96-well plates. Analysis of the amount of PGE2 is performed with reversed phase HPLC (Waters 2795 equipped with a 3.9×150 mm C18 column). The mobile phase consists of H2O/MeCN (7/3), containing TFA (0.056%), and absorbance is measured at […] with a Waters 2487 UV-detector.
The following is added chronologically to each well: • 1. 100 μL human mPGES-1 in KPi-buffer with glutathione. Total protein concentration: 0.02 mg/mL. • 2. […] inhibitor in DMSO. Incubation of the plate at room temperature for 25 minutes. • 3. 4 μL of a […] PGH2 solution. Incubation of the plate at room temperature for 60 seconds. • 4. 100 μL stop solution. • 180 μL per sample is analyzed with HPLC.

Structure (SMILES)	IC50 [µM]
CC(C)Oc1ccc(-n2c(C(=O)O)c(-c3cccnc3)c3cc(-c4ccc(C(F)(F)F)cc4)ccc32)cn1 [Example 11, 1-(6-Isopropoxypyrid-3-yl)-3-(pyrid-3-yl)-5-(4-(trifluoromethyl)phenyl)-indole-2-carboxylic acid]	1.8
CC(C)Oc1ccc(-c2c(C(=O)O)n(-c3cccnc3)c3ccc(-c4ccc(C(C)(C)C)cc4)cc23)cc1 [Example 13, 5-(4-tert-Butylphenyl)-3-(4-isopropoxyphenyl)-1-pyrid-3-yl-1H-indole-2-carboxylic acid]	0.95
CC(C)Nc1ccc(-n2c(C(=O)O)c(-c3ccc(OC(C)C)cc3)c3cc(-c4ccc(C(C)(C)C)cc4)ccc32)cc1 [Example 6, 5-(4-tert-Butylphenyl)-3-(4-isopropoxyphenyl)-1-(4-(isopropylamino)-phenyl)indole-2-carboxylic acid]	0.07
CC(C)Oc1ccc(-c2c(C(=O)O)n(-c3ccc(N(C)C)cc3)c3ccc(-c4ccc(C(C)(C)C)cc4)cc23)cc1 [Example 5, 5-(4-tert-Butylphenyl)-1-(4-(dimethylamino)phenyl)-3-(4-isopropoxyphenyl)indole-2-carboxylic acid]	0.21
CC(C)Oc1ccc(-c2c(C(=O)O)n(-c3cccc(OC(C)C)c3)c3ccc(-c4ccc(C(C)(C)C)cc4)cc23)cc1 [Example 2, 5-(4-tert-Butylphenyl)-1-(3-isopropoxyphenyl)-3-(4-isopropoxyphenyl)-indole-2-carboxylic acid]	0.35
